Where “and” joins values, the source holds several entries; their conditions need not be identical. Identical values can stand only once.
How the values were obtained:
[1] = test system: anthrax lethal toxin (LT; PA + LF); design: species or system Fischer 344 rats; conditions: rat, in vivo
[2] = target: anthrax lethal factor (LF) (Bacillus anthracis, UniProt P15917); type: biochemical
[3] = t = 30 min
in vivo = conditions: NZW, rabbit, sc, 10 mg/kg

Sequence of anthrax lethal factor (LF) (P15917 34-809 limits assumed): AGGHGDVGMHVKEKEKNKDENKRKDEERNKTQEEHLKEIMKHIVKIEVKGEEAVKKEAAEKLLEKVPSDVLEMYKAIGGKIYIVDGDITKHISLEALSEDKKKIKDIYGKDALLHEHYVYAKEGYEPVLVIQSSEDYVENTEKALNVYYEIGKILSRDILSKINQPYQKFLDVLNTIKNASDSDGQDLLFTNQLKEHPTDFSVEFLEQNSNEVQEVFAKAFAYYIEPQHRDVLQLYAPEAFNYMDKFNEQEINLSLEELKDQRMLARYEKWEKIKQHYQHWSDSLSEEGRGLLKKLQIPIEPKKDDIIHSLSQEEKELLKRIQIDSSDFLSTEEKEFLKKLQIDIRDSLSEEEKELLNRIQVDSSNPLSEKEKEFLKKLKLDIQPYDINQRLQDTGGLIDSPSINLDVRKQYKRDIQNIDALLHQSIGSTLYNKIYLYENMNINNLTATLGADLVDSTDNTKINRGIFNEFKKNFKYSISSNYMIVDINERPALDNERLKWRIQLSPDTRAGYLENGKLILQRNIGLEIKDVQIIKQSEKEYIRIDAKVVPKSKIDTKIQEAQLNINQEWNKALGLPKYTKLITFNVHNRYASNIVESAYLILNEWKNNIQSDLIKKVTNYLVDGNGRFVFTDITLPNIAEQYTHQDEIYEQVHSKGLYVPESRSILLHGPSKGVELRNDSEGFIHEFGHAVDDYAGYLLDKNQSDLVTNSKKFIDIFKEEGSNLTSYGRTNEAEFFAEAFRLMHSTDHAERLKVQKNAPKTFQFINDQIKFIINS

SMILES	rMST = MST(LFI)/MST(controls) [1]	surv (number of survivors per group) [1]	also measured
Cc1cc(N[C@H](CCCCNCc2ccc(F)cc2)C(=O)NO)cc(C)c1F [LFI 1]	16.8	3/5 and 3/3	
Cc1cc(C[C@H](CCCCNCc2ccc(F)cc2)C(=O)NO)cc(C)c1F [LFI 2]	19.3	1/3 and 3/3	
Cc1cc(O[C@H](CCCCNCc2ccc(F)cc2)C(=O)NO)cc(C)c1F [LFI 3]	16.0	0/3	
CO[C@H](C[C@H](CCCCNCc1ccc(F)cc1)C(=O)NO)c1ccc(F)cc1 [LFI 4]		one animal was lost	
CC[C@@H](NCCCC[C@@H](Cc1cc(C)c(F)c(C)c1)C(=O)NO)c1ccc(F)cc1 [LFI 11]			difference in potency against LF between analogs [2]: 50 fold
Cc1cc(C[C@H](CCCCN[C@H](Cc2ccccc2)c2ccc(F)cc2)C(=O)NO)cc(C)c1F [LFI 15]			LF (FRET) KinM) [2]: sub-nanomolar
CCC(NCCCC[C@@H](Cc1cc(C)c(F)c(C)c1)C(=O)NO)c1ccc(F)cc1 (stereo partly shown) [LFI 18]		protect all of the animals and 3/3 and 5/6	
CCC(NCCCC[C@@H](Oc1cc(C)c(F)c(C)c1)C(=O)NO)c1ccc(F)cc1 (stereo partly shown) [LFI 19]		1/3	M = microsome stability, percent of compound remaining [3]: < 10%
CCC(NCCCC[C@@H](C[C@@H](OC)c1ccc(F)cc1)C(=O)NO)c1ccc(F)cc1 (stereo partly shown) [LFI 20]			Cmax (in vivo): 561 ng/mL

— paper PMC3295836 (Bioorganic & medicinal chemistry letters, 2012)
